Results published in publication PMC8329197, “Compounds targeting OSBPL7 increase ABCA1-dependent cholesterol efflux preserving kidney function in two models of kidney disease” (Nature Communications, 2021).
Where “and” joins values, the source holds several entries; their conditions need not be identical. Equal values may be shown once.

What was measured:
3A4 = assay: TDI (3A4) time dependent inhibition; type: in vitro ADME
Col4a3 KO mice [1] = assay: Alport syndrome model: survival study, treatment from 6 weeks of age
[2] = test system: Adriamycin (ADR)-induced nephropathy in Balb/c mice; assay: ADR nephropathy: blinded histology of PAS-stained kidney sections; type: in vivo, mouse
Experimental: Formalin-fixed paraffin-embedded kidney cortex sections 4 μm thick were stained with Periodic acid-Schiff (PAS). The slides were analyzed by a renal pathologist in a double-blind design. Glomerular sclerosis, (global and segmental), podocyte hypertrophy and podocyte hyperplasia were expressed as the percentage of glomeruli found with these abnormalities. Tubular microcysts and interstitial inflammation were scored on a 0–4 scale where 0 = 0%, 0.5 = 1–10%, 1 = 11–25%, 2: 26–50 %, 3: 51–75%, and 4 = more than 75% damage.

Free fraction, rat = type: in vitro ADME; conditions: read-out: free fraction rat / man [%]
Col4a3 KO mice [3] = assay: Alport syndrome model: kidney cortex cholesterol ester, total cholesterol, triglycerides; type: in vivo, mouse
Experimental: Snap frozen kidney cortex samples were homogenized in 2 mM potassium phosphate buffer, pH 7, (10 µl buffer/mg tissue) using a glass douncer on ice. 100 μl of the homogenate were mixed thoroughly with 1 ml of hexane:isopropanol (3:2;v:v) per volume of tissue homogenate. The aqueous (pellet) and organic (supernatant) phases were separated by centrifugation at 12,000 × g for 5 min. Pellets (aqueous phase) were dried, reconstituted in 8 M urea, 0.1% SDS, 0.1 M NaOH, and total proteins were quantified by the BCA method (Thermofisher). The organic phase was dried by exposure to nitrogen. Lipids were then reconstituted in 100 µl isopropanol:NP-40 (9:1;v:v). Triglyceride content was assayed using a colorimetric kit according to the manufacturer’s instructions (Cayman Chemical USA). Total cholesterol and CE content were assayed using an enzymatic fluorometric method. For total cholesterol measurement, extracts were diluted 1:100 in assay buffer (100 mM potassium phosphate, 50 mM NaCl, 5 mM cholic acid, 0.1% Triton […], pH 7.4) containing cholesterol oxidase (1 U/ml), cholesterol esterase (1 U/ml), horseradish peroxidase (1 U/ml), and Amplex Red (75 µM). The reactions were incubated at 37 °C for 30 min in a black opaque 96-well plate (Greiner) and fluorescence was measured in a microplate reader (Spectramax i3X, Molecular Devices) at 530 nm excitation and 580 emission.
For CE determination, 150 µl of the assay buffer described above, supplemented with bovine liver catalase (45 U/ml) and cholesterol oxidase (1 U/ml), was added to 25 μl of sample and incubated overnight at 37 °C to deplete free cholesterol leaving only cholesterol esters. Then, 75 µl of cholesterol ester detection reagent (1 U/ml cholesterol oxidase, 4 U/ml cholesterol esterase, 24 U/ml horseradish peroxidase, 300 µM Amplex Red) was added. The reaction was incubated at 37 °C for 30 min and the fluorescence signal was measured as described above. Internal standards included samples containing 1 mM of cholesterol and 5 μM of cholesterol oleate in order to verify the completeness of the enzymatic decomposition of free cholesterol as well as assay sensitivity and specificity.

Col4a3 KO mice [4] = assay: Alport syndrome model: serum cholesterol and triglycerides; type: in vivo, mouse
ABCA1 protein = assay: ABCA1 western blot in podocyte whole-cell lysates; type: cell-based, human; conditions: Cpd G 10 µM, Cpd A 5 µM; podocytes
Experimental: Cell lines were purchased from ATCC and subcultured for no more than passage 15, except for human podocytes, which were originally from Dr Jochen Reiser. Conditionally immortalized human podocytes were cultured under permissive conditions at 33 °C, in RPMI medium (Corning) containing 10% FBS (GIBCO), 1% penicillin/streptomycin, 0.01 mg/ml recombinant human insulin, 0.0055 mg/ml human transferrin (substantially iron-free), and 0.005 μg/ml sodium selenite (ITS, Corning). To induce differentiation, podocytes were cultured at 37 °C for 14 days in RPMI medium containing 10% FBS (GIBCO) and 1% penicillin/streptomycin. Differentiated podocytes were starved in RPMI-0.2% FBS for 18 h and then treated with 1 μM, 5 μM, and 10 μM of compounds freshly prepared in DMSO for 18 h at 37 °C as indicated.
Lysates, or cell fractions were incubated in Laemmli buffer at 55 °C for 10 min under reducing conditions. A total of 30 μg of protein from cell lysates or one-third of the volume collected in cell fraction preparations was separated by SDS-PAGE in 4–20% gradient gels (Biorad) and proteins were then transferred to PVDF membranes. […] Signals were detected after incubation with Westernbright ECL HRP substrate (Advansta) and luminescence signals were captured with Azure C600 Gel Imaging workstation (Azure Biosystems Inc, USA) or X-ray films.

human THP1 macrophages = assay: apoAI-mediated (ABCA1) cholesterol efflux from cholesterol-loaded THP1 macrophages; type: cell-based; set-up: ABCA1 Efflux %: dose or concentration left out as unconfirmed
[5] = ADR + Cpd G 100 mg/Kg, single animals
[6] = score 0: 0%, 0.5: 1–10%, 1: 11–25%, 2: 26–50%, 3: 51–75%, 4: >75%, single animals
[7] = Col4a3 KO mice at the age of 8 weeks, individual mouse values

For `O=C(N[C@@H]1CCCC[C@H]1O)c1cnc(OCC(F)(F)F)c(-c2ccc(Cl)c(Cl)c2)c1` [Cpd G], the “TDI (3A4) time dependent inhib” value (3A4) was “Negative”, the “SURVIVAL CURVE: day with status 1= dead” value (Col4a3 KO mice [1]; Col4A3 KO, Cpd G 100 mg/Kg/day started at week 6, single animals) was 67 days and 70 days and 73 days and 78 days and the “Increased life span compared to controls” value (Col4a3 KO mice [1]; Col4a3 KO, treatment initiated at 6 weeks of age) was “approximately 15%”. For the same compound, the “Global glomerular sclerosis (% of gloms with), median” value ([2]; ADR + Cpd G 100 mg/Kg) was 0%, the “Interstitial Inflammation (scale 0-4), Range” value ([2]; ADR + Cpd G 100 mg/Kg) was 0-0.5 and the “Mesangial expansion (scale 0-5), Range” value ([2]; ADR + Cpd G 100 mg/Kg) was 1-2. The “Podocyte hyperplasia (% of gloms with), median” value ([2]; ADR + Cpd G 100 mg/Kg) was 0%, the “Segmental glomerular sclerosis (% of gloms with), median” value ([2]; ADR + Cpd G 100 mg/Kg) was 0% and the “Tubular microcysts (scale 0-4), Range” value ([2]; ADR + Cpd G 100 mg/Kg) was 0 -1. For the same compound, the “podocyte hypertrophy (% of gloms with), median” value ([2]; ADR + Cpd G 100 mg/Kg) was 0%, the “Global Glom. Sclerosis, % of glomeruli with” value [2, 5] was 0% and the “Mesangial Expansion (Scale 0-5)” value [2, 5] was 1.25 and 1.5 and 1. For the same compound, the “Podocyte Hyperplasia, % of glomeruli with” value [2, 5] was 0%, the “Podocyte Hypertrophy, % of glomeruli with” value [2, 5] was 0% and the “Segmental Glom. Sclerosis, % of glomeruli with” value [2, 5] was 0%. The “Interstitial Inflammation (Scale 0-4)” value [2, 6] was 0 and 0.5, the “Tubular Microcysts (Scale 0-4)” value [2, 6] was 1 and 0 and 0.5 and the fraction unbound (Free fraction, rat) was under 0.01. The “RENAL CHOL.ESTERS, Median” value (Col4a3 KO mice [3]; Col4A3 KO mice, treated for 28 days, group median) was 2.615 nmol CE/ mg protein, the “RENAL CHOL.ESTERS (CE normalized to total proteins, kidney)” value (Col4a3 KO mice [3]; Col4A3 KO mice, treated for 28 days, individual animals) was 4.92 nmol CE/ mg protein and 2.49 nmol CE/ mg protein and 0.13 nmol CE/ mg protein and 2.74 nmol CE/ mg protein and the “Renal Total Cholesterol” value (Col4a3 KO mice [3]; [7]) was 40.2 nmol TC/ mg protein and 29.4 nmol TC/ mg protein and 30.8 nmol TC/ mg protein. For the same compound, the “Renal Trig.” value (Col4a3 KO mice [3]; [7]) was 89.04 nmol TG/ mg protein and 64.42 nmol TG/ mg protein and 121.19 nmol TG/ mg protein and 83.13 nmol TG/ mg protein, the “Cholesterol ester content in kidneys” value (Col4a3 KO mice [3]; Col4a3 KO, Cpd G 28 days) was “significantly reduced cholesterol ester content” and the “SERUM TRIGLYCERIDES” value (Col4a3 KO mice [4]; 8 week-old Col4a3 KO, Cpd G 4 weeks, single animals) was 78 mg/dL and 59 mg/dL and 83 mg/dL and 72 mg/dL. The “SERUM CHOLESTEROL” value (Col4a3 KO mice [4]; Col4a3 KO, Cpd G 100 mg/kg) was “no effect on serum cholesterol”, the “SERUM TRIGLYCERIDES” value (Col4a3 KO mice [4]; Col4a3 KO, Cpd G 100 mg/kg) was “tended to reduce serum triglycerides” and the “SERUM CHOLESTEROL” value (Col4a3 KO mice [4]; Col4a3 KO, Cpd G 28 days, single animals) was 94 mg/dL and 139 mg/dL and 205 mg/dL and 126 mg/dL.
With `O=C(N[C@@H]1CCCC[C@H]1O)c1ccc(OCC(F)(F)F)c(-c2ccc(Cl)c(Cl)c2)n1` [Cpd A] the “ABCA1 protein levels in whole-cell lysates” value (ABCA1 protein) was “significantly increased ABCA1 protein levels”, the “ABCA1 percentage of induction, average” value (human THP1 macrophages; average of 3) was 91% and the “ABCA1 Efflux %” value (human THP1 macrophages; average(SEM)) was 91(4.9) %. For the same compound, the “ABCA1 percentage of induction” value (human THP1 macrophages; single experiments (3 per compound)) was 81% and 94% and 97%.
